In ChEMBL document CHEMBL2150910, “Initial Optimization of a New Series of γ-Secretase Modulators Derived from a Triterpene Glycoside” (ACS Med Chem Lett, 2012):

Key:
[1] = Inhibition of gamma-secretase-mediated amyloid beta-42 production in diluted 2B7 conditioned media after 5 hrs
[2] = Inhibition of gamma-secretase-mediated amyloid beta-40 production in diluted 2B7 conditioned media at 0.8 uM after 5 hrs
[3] = Inhibition of gamma-secretase-mediated amyloid beta-40 production in diluted 2B7 conditioned media after 5 hrs
[4] = Inhibition of gamma-secretase-mediated amyloid beta-38 production in diluted 2B7 conditioned media after 5 hrs
[5] = Half life in CD1 mouse at 30 mg/kg, po; format: ADME, organism-based; design: dose 30 mg/kg, route oral; conditions: in vivo
[6] = Inhibition of gamma-secretase assessed as ratio of amyloid beta-40 to amyloid beta-42 production in diluted 2B7 conditioned media after 5 hrs
[7] = Inhibition of gamma-secretase-mediated total amyloid beta production in diluted 2B7 conditioned media after 5 hrs
Gamma-secretase = assay: Inhibition of gamma-secretase-mediated notch processing in human SUP-T1 cells after 1 hr by luminescent assay; format: cell-based
[8] = Half life in CD1 mouse at 1 mg/kg, iv; format: ADME, organism-based; design: dose 1 mg/kg, route intravenous; conditions: in vivo
[9] = Volume of distribution in CD1 mouse at 1 mg/kg, iv; format: ADME, organism-based; design: dose 1 mg/kg, route intravenous; conditions: in vivo
[10] = Clearance in CD1 mouse at 1 mg/kg, iv; format: ADME, organism-based; design: dose 1 mg/kg, route intravenous; conditions: in vivo
[11] = Oral bioavailability in CD1 mouse at 30 mg/kg; format: ADME, organism-based; conditions: in vivo
[12] = Ratio of drug level in brain to plasma in CD1 mouse at 30 mg/kg, po; format: ADME, organism-based; design: dose 30 mg/kg, route oral; conditions: read-out: BPR
[13] = AUC in CD1 mouse at 30 mg/kg, po; format: ADME, organism-based; design: dose 30 mg/kg, route oral; conditions: plasma
[14] = Drug level in CD1 mouse brain at 30 mg/kg, po after 4 hrs; format: ADME, organism-based; design: dose 30 mg/kg, route oral; conditions: read-out: Drug uptake
[15] = Drug level in CD1 mouse brain at 30 mg/kg, po after 6 hrs; format: ADME, organism-based; design: dose 30 mg/kg, route oral; conditions: read-out: Drug uptake
[16] = Drug level in CD1 mouse brain at 30 mg/kg, po after 8 hrs; format: ADME, organism-based; design: dose 30 mg/kg, route oral; conditions: read-out: Drug uptake
[17] = Drug level in CD1 mouse brain at 30 mg/kg, po after 24 hrs; format: ADME, organism-based; design: dose 30 mg/kg, route oral; conditions: read-out: Drug uptake
[18] = Plasma concentration in CD1 mouse at 30 mg/kg, po after 4 hrs; format: ADME, organism-based; design: dose 30 mg/kg, route oral
[19] = Plasma concentration in CD1 mouse at 30 mg/kg, po after 6 hrs; format: ADME, organism-based; design: dose 30 mg/kg, route oral
[20] = Plasma concentration in CD1 mouse at 30 mg/kg, po after 8 hrs; format: ADME, organism-based; design: dose 30 mg/kg, route oral
[21] = Plasma concentration in CD1 mouse at 30 mg/kg, po after 24 hrs; format: ADME, organism-based; design: dose 30 mg/kg, route oral
[22] = Metabolic stability in CD1 mouse liver microsomes assessed as compound remaining at 1 uM after 60 mins in absence of NADPH; format: ADME, Microsome; conditions: read-out: Stability
[23] = Metabolic stability in CD1 mouse liver microsomes assessed as compound remaining at 1 uM after 60 mins in presence of NADPH; format: ADME, Microsome; conditions: read-out: Stability
[24] = molecular target: Gamma-secretase (Homo sapiens) (UniProt Q96BI3+Q9NZ42+Q8WW43+P49768+Q92542+P49810); assay: Selectivity ratio of IC50 for gamma-secretase-mediated notch processing in human SUP-T1 cells to IC50 for gamma-secretase-mediated amyloid beta-42 production; format: cell-based
[25] = Dissociation constant, pKa of the compound; format: physicochemical
[26] = Drug level in CD1 mouse brain at 100 mg/kg, po after 2 hrs; format: ADME, organism-based; design: dose 100 mg/kg, route oral; conditions: read-out: Drug uptake
[27] = Drug level in CD1 mouse brain at 100 mg/kg, po after 4 hrs; format: ADME, organism-based; design: dose 100 mg/kg, route oral; conditions: read-out: Drug uptake
[28] = Drug level in CD1 mouse brain at 100 mg/kg, po after 6 hrs; format: ADME, organism-based; design: dose 100 mg/kg, route oral; conditions: read-out: Drug uptake
[29] = Inhibition of gamma-secretase-mediated amyloid beta-40 production in diluted 2B7 conditioned media at 20 uM after 5 hrs
[30] = Inhibition of gamma-secretase-mediated total amyloid beta production in diluted 2B7 conditioned media at 20 uM after 5 hrs
[31] = Plasma concentration in CD1 mouse at 100 mg/kg, po after 2 hrs; format: ADME, organism-based; design: dose 100 mg/kg, route oral
[32] = Plasma concentration in CD1 mouse at 100 mg/kg, po after 4 hrs; format: ADME, organism-based; design: dose 100 mg/kg, route oral
[33] = Plasma concentration in CD1 mouse at 100 mg/kg, po after 6 hrs; format: ADME, organism-based; design: dose 100 mg/kg, route oral
[34] = Inhibition of gamma-secretase-mediated amyloid beta-37 production in diluted 2B7 conditioned media after 5 hrs

Row | SMILES | IC50 [1] | inhibition [2] | IC50 [3] | IC50 [4] | half-life [5] | Ratio [6] | IC50 (Gamma-secretase) | half-life [8] | Vd [9] | clearance [10] | bioavailability [11] | Kp [12] | AUC [13] | remaining at 1 h, 1 µM [22] | remaining at 1 h, 1 µM [23] | Ratio IC50 [24] | pKa [25] | also measured
1 | CC(=O)O[C@@H]([C@H]1C[C@@H](C)[C@H]2[C@H](O1)[C@H](O)[C@@]1(C)[C@@H]3CC[C@H]4C(C)(C)[C@@H](O[C@H]5CN(CCN6CCCC6)CCO5)CC[C@@]45C[C@@]35CC[C@]21C)C(C)(C)O | 110 nM | 34% |  |  |  |  |  |  |  |  |  |  |  |  |  |  |  | 
2 | CC(=O)O[C@@H]([C@H]1C[C@@H](C)[C@H]2[C@H](O1)[C@H](O)[C@@]1(C)[C@@H]3CC[C@H]4C(C)(C)[C@@H](O[C@H]5CNCCO5)CC[C@@]45C[C@@]35CC[C@]21C)C(C)(C)O | 55 nM |  | 1400 nM | 80 nM | 3 h | 25 | > 4000 nM | 6.5 h | 12.1 L/kg | 51.7 mL/min/kg | 37% | 1.7 | 3620 ng·h/mL | 20% | 25% | > 70 | 7.7 | IC50 [7]: 2400 nM; concentration at 4 h [14]: 1340 ng/g; concentration at 6 h [15]: 1630 ng/g; concentration at 8 h [16]: 2260 ng/g; concentration at 24 h [17]: 116 ng/g; concentration at 4 h [18]: 1140 ng/mL; concentration at 6 h [19]: 840 ng/mL; concentration at 8 h [20]: 857 ng/mL; concentration at 24 h [21]: 31 ng/mL
3 | CC(=O)O[C@@H]([C@H]1C[C@@H](C)[C@H]2[C@H](O1)[C@H](O)[C@@]1(C)[C@@H]3CC[C@H]4C(C)(C)[C@@H](O[C@H]5CN(C6COC6)CCO5)CC[C@@]45C[C@@]35CC[C@]21C)C(C)(C)O | 170 nM |  | 14100 nM | 300 nM | 2.3 h | 52 | > 20000 nM | 0.3 h | 0.6 L/kg | 55 mL/min/kg | 11% | 0.23 | 1010 ng·h/mL | 1% | 1% | > 70 | 4.6 | concentration at 2 h [26]: 103 ng/g; concentration at 4 h [27]: 185 ng/g; concentration at 6 h [28]: 163 ng/g; inhibition [29]: 41%; inhibition [30]: 44%; concentration at 2 h [31]: 279 ng/mL; concentration at 4 h [32]: 420 ng/mL; concentration at 6 h [33]: 453 ng/mL
4 | CC(=O)O[C@@H]([C@H]1C[C@@H](C)C2=C(O1)[C@H](O)[C@@]1(C)[C@@H]3CC[C@H]4C(C)(C)[C@@H](O[C@@H]5OC[C@@H](O)[C@H](O)[C@H]5O)CC[C@@]45C[C@@]35CC[C@]21C)C(C)(C)O | 100 nM |  | 2700 nM | 61 nM |  |  |  |  |  |  |  |  |  |  |  |  |  | IC50 [34]: 39 nM
5 | CC(=O)O[C@@H]([C@H]1C[C@@H](C)[C@H]2[C@H](O1)[C@H](O)[C@@]1(C)[C@@H]3CC[C@H]4C(C)(C)[C@@H](O[C@@H]5OC[C@@H](O)[C@H](O)[C@H]5O)CC[C@@]45C[C@@]35CC[C@]21C)C(C)(C)O | 60 nM |  | 1000 nM | 84 nM |  |  |  |  |  |  |  |  |  |  |  |  |  | 
6 | CC(=O)O[C@@H]([C@H]1C[C@@H](C)[C@H]2[C@H](O1)[C@H](O)[C@@]1(C)[C@@H]3CC[C@H]4C(C)(C)[C@@H](O[C@H]5CN(CCN(C)C)CCO5)CC[C@@]45C[C@@]35CC[C@]21C)C(C)(C)O | 90 nM | 29% |  |  |  |  |  |  |  |  |  |  |  |  |  |  |  | 
